Where two headings read alike, the source gives them in different places. A value given as a limit tells only on which side of the number the result lay.

As a reminder, the IC50 is the midpoint of a concentration-inhibition curve.

The target in one experiment is T1, PKMYT1 (Homo sapiens, UniProt Q99640).
T1 construct: PKMYT1 (93 kD, full length, N-terminal GST tag from Signal Chem); GST (N); purchased Signal Chem
T1 sequence (Q99640 1-499): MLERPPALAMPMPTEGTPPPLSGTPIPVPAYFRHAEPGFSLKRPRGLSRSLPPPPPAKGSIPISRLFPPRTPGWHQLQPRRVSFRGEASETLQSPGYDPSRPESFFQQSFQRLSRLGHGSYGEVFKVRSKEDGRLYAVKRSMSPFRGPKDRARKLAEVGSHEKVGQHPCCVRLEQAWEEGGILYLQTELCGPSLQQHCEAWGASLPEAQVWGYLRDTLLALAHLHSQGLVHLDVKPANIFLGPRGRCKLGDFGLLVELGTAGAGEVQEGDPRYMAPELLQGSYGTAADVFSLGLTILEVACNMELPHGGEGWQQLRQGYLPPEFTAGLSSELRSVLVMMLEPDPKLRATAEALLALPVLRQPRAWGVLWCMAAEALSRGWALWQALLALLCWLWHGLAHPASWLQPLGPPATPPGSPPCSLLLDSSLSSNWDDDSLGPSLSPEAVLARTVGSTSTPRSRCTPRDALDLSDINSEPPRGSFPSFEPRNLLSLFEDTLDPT
In words: ADP-Glo PKMYT1 ATP-depletion assay. The following applies: 50 nM PKMYT1, 13.3 nM CDK1, read-out: Biochemical IC50. In outline: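 Full-length N-terminal GST-tagged PKMYT1 (50 nM) with GST-CDK1 (13.3 nM) as substrate and 88 µM ATP, in Hepes buffer with MgCl2, MnCl2, DTT and BSA; DMSO <1%. Incubated 120 min at RT. ADP formed was quantified by ADP-Glo luminescence and used to derive biochemical IC50.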
On the technique in general: In ADP-Glo the light output rises with the ADP produced.

Experiment [1] relates to phosphorylation of CDK1 at Thr14 in HCC1806 cells. In words: Cell lysate AlphaLISA assay measuring inhibition of phosphorylation of CDK1 Thr14. The class given is cell-based. Conditions: read-out: Cellular IC50. In outline:
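HCC1806 cells seeded overnight, then treated 4 h at 37 °C, 5% CO2 with compounds in DMSO; washed and lysed, lysates frozen overnight at −80 °C. CDK1 Thr14 phosphorylation read by AlphaLISA SureFire Ultra; data normalized to DMSO (0% inhibition) and 3 μM reference compound to give IC50.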
In general terms: In Alpha technology, singlet oxygen from a donor bead excites a nearby acceptor bead.

With `NC(=O)c1nc2cccnc2c(-c2c(F)ccc3[nH]ncc23)c1N` (atropisomer, axis not shown) [Compound 244], the IC50 on PKMYT1 was 50 to 500 nM; in experiment [1] (4 hours), 500 to 1000 nM.

Turning to `Cc1c(O)cccc1-c1c(N)c(C(N)=O)nc2cccc(C#N)c12` (atropisomer, axis not shown) [Compound 243], the IC50 (on PKMYT1; in experiment [1] (4 hours)) was 50 to 500 nM throughout.

Turning to `Cc1ccc(O)c(C)c1-c1c(N)c(C(N)=O)nc2cccnc12` (single isomer, unassigned) [Compound 9, (P)-3-Amino-4-(3-hydroxy-2,6-dimethylphenyl)-1,5-naphthyridine-2-carboxamide], the IC50 (at PKMYT1; in experiment [1] (4 hours)) was less than 50 nM each time.

Regarding `Cc1c(O)cccc1-c1c(N)c(C(N)=O)nc2nccc(Cl)c12` [Compound 261], the IC50 on PKMYT1 was no less than 5000 nM; in experiment [1] (Homo sapiens, HCC1806, 4 h), no less than 5000 nM.

Consider `Cc1cnc2c(-c3c(C)ccc(O)c3C)c(N)c(C(N)=O)cc2n1` (atropisomer, axis not shown) [Compound 222], for which the IC50 (at PKMYT1; in experiment [1] (4 hours)) was less than 50 nM throughout.

With `NC(=O)c1cc2nccnc2c(-c2ccnc3[nH]ncc23)c1N` [Compound 182], the IC50 at PKMYT1 is 1000 to 5000 nM; in experiment [1] (Homo sapiens, HCC1806, 4 h) it was no less than 5000 nM.

In the case of `NC(=O)c1cc2nccnc2c(-c2cccc(O)c2Cl)c1N` [Compound 97, 7-Amino-8-(2-chloro-3-hydroxyphenyl)quinoxaline-6-carboxamide], the IC50 on PKMYT1 is less than 50 nM; in experiment [1] (Homo sapiens, HCC1806, 4 h) it was 50 to 500 nM.

On to `Cc1ccc(O)cc1-c1c(N)c(C(N)=O)cc2nccnc12` (atropisomer, axis not shown; (P)) [Compound 117, (P)-7-amino-8-(5-hydroxy-2-methylphenyl)quinoxaline-6-carboxamide], for which the IC50 was 1000 to 5000 nM on PKMYT1 and no less than 5000 nM in experiment [1] (4 hours).

As for `Cc1c(O)cccc1-c1c(N)c(C(N)=O)nc2nccc(C#N)c12` [Compound 260], the IC50 at PKMYT1 is no less than 5000 nM; in experiment [1] (Homo sapiens, HCC1806, 4 h), no less than 5000 nM.

As to `COc1cncc(-c2c(N)c(C(N)=O)nc3cccnc23)c1C` (atropisomer, axis not shown) [Compound 185], the 50% inhibitory concentration (IC50) (at PKMYT1; in experiment [1] (4 hours)) was no less than 5000 nM each time.

Regarding `NC(=O)c1cc2nccnc2c(-c2cc(O)cnc2Cl)c1N` (atropisomer, axis not shown) [Compound 164], the concentration for half-maximal inhibition (IC50) (at PKMYT1; in experiment [1] (4 hours)) was no less than 5000 nM throughout.

For `Cc1c(O)cc(Cl)cc1-c1c(N)c(C(N)=O)nc2cccnc12` (atropisomer, axis not shown) [Compound 290], the IC50 (on PKMYT1; in experiment [1] (4 hours)) was 50 to 500 nM each time.

For the molecule `Cc1ccc(O)c(C)c1-c1cc(C(N)=O)cc2nccnc12` [Compound 74, 8-(3-Hydroxy-2,6-dimethyl-phenyl)quinoxaline-6-carboxamide], the IC50 is 500 to 1000 nM on PKMYT1 and no less than 5000 nM in experiment [1] (Homo sapiens, HCC1806, 4 h).

On to `Cc1ncncc1-c1c(N)c(C(N)=O)nc2cccnc12` [Compound 232], for which the IC50 was 1000 to 5000 nM on PKMYT1 and no less than 5000 nM in experiment [1] (Homo sapiens, HCC1806, 4 h).

Take `NC(=O)c1nc2cccnc2c(-c2cncc(Cl)c2Cl)c1N` [Compound 258]: the IC50 on PKMYT1 is less than 50 nM; in experiment [1] (Homo sapiens, HCC1806, 4 h), 50 to 500 nM.

For the molecule `NC(=O)c1cc(-c2cccc3[nH]ncc23)c2nccnc2c1` [Compound 75, 8-(1H-indazol-4-yl)quinoxaline-6-carboxamide], the IC50 on PKMYT1 is no less than 5000 nM; in experiment [1] (Homo sapiens, HCC1806, 4 h), no less than 5000 nM.

Consider `Cc1c(-c2c(N)c(C(N)=O)cc3nccnc23)ccc(F)c1O` (atropisomer, axis not shown) [Compound 307], for which the figures for the IC50 (at PKMYT1; in experiment [1] (4 hours)) were 1000 to 5000 nM and no less than 5000 nM, respectively.

Consider `Cc1cnc2c(-c3cccc(O)c3C)c(N)c(C(N)=O)cc2n1` (atropisomer, axis not shown) [Compound 209], for which the IC50 on PKMYT1 is less than 50 nM; in experiment [1] (4 hours), 50 to 500 nM.

Take `Cc1cncc(C2=c3ncccc3=NC(C(N)=O)C2N)c1C` (stereo not drawn) [Compound 212]: the IC50 on PKMYT1 lay in the range of 50 to 500 nM; in experiment [1] (4 hours) it was 500 to 1000 nM.

As for `Cn1c(-c2c(N)c(C(N)=O)nc3cccnc23)cccc1=O` [Compound 158], the IC50 is 1000 to 5000 nM on PKMYT1 and no less than 5000 nM in experiment [1] (Homo sapiens, HCC1806, 4 h).

For `Cc1ccc(O)c(C)c1-c1c(N)c(C(N)=O)cc2nc(-c3cnn(C)c3)cnc12` [Compound 251], the IC50 is less than 50 nM on PKMYT1 and 500 to 1000 nM in experiment [1] (Homo sapiens, HCC1806, 4 h).

Regarding `Cc1ccc2[nH]ncc2c1-c1c(N)c(C(N)=O)nc2ccccc12` [Compound 17, 3-Amino-4-(5-methyl-1H-indazol-4-yl)quinoline-2-carboxamide], the IC50 was 500 to 1000 nM on PKMYT1 and no less than 5000 nM in experiment [1] (Homo sapiens, HCC1806, 4 h).

With `COc1ccc2nc(C(N)=O)c(N)c(-c3cccc(O)c3C)c2n1` (atropisomer, axis not shown) [Compound 174], the IC50 was less than 50 nM on PKMYT1 and 50 to 500 nM in experiment [1] (4 hours).

Regarding `NC(=O)c1nc2cccnc2c(-c2cnc(N)cc2C(F)(F)F)c1N` [Compound 183], the IC50 was no less than 5000 nM on PKMYT1 and no less than 5000 nM in experiment [1] (Homo sapiens, HCC1806, 4 h).

As to `Cc1cnc2c(-c3cccc(O)c3C)c(N)c(C(N)=O)cc2c1` [Compound 196], the IC50 on PKMYT1 lay within 50 to 500 nM; in experiment [1] (Homo sapiens, HCC1806, 4 h), 1000 to 5000 nM.

`Cc1ccc(O)c(C)c1-c1c(N)c(C(N)=O)nc2c(F)cccc12` (single isomer, unassigned) [Compound 39, (P)-3-amino-8-fluoro-4-(3-hydroxy-2,6-dimethylphenyl)quinoline-2-carboxamide]: the IC50 (on PKMYT1; in experiment [1] (4 hours)) was no less than 5000 nM each time.

With `CCn1ccc2cc(C(N)=O)c(N)c(-c3cccc(O)c3C)c2c1=O` (atropisomer, axis not shown) [Compound 329], the IC50 at PKMYT1 was less than 50 nM; in experiment [1] (4 hours) it was 50 to 500 nM.

Turning to `Cc1c(O)cc(Cl)cc1-c1c(N)c(C(N)=O)nc2cccnc12` (atropisomer, axis not shown) [Compound 289], the IC50 was 1000 to 5000 nM on PKMYT1 and no less than 5000 nM in experiment [1] (4 hours).

As for `NC(=O)c1nc2cccnc2c(-c2ccnc3[nH]ncc23)c1N` [Compound 191], the IC50 is 1000 to 5000 nM on PKMYT1 and no less than 5000 nM in experiment [1] (Homo sapiens, HCC1806, 4 h).

Regarding `Cc1ccc(O)c(C)c1-c1c(N)c(C(N)=O)cc2nc(C)c(C)nc12` [Compound 94, 7-Amino-8-(3-hydroxy-2,6-dimethylphenyl)-2,3-dimethylquinoxaline-6-carboxamide], the IC50 on PKMYT1 is less than 50 nM; in experiment [1] (Homo sapiens, HCC1806, 4 h) it was 50 to 500 nM.

In the case of `Cc1c(O)cccc1-c1c(N)c(C(N)=O)cc2nc(C(F)(F)F)cnc12` [Compound 96, 7-Amino-8-(3-hydroxy-2-methylphenyl)-3-(trifluoromethyl)quinoxaline-6-carboxamide], the IC50 lay within 50 to 500 nM at PKMYT1 and 1000 to 5000 nM in experiment [1] (4 hours).

As to `NC(=O)c1cc2nccnc2c(-c2cccc3sncc23)c1N` [Compound 214], the IC50 on PKMYT1 is 500 to 1000 nM; in experiment [1] (Homo sapiens, HCC1806, 4 h), no less than 5000 nM.

On to `NC(=O)c1cc2nccnc2c(-c2cc(O)ccc2F)c1N` [Compound 114, 7-Amino-8-(2-fluoro-5-hydroxyphenyl)quinoxaline-6-carboxamide], for which the IC50 fell in the range of 50 to 500 nM at PKMYT1 and 1000 to 5000 nM in experiment [1] (Homo sapiens, HCC1806, 4 h).

The values are drawn from US20260176270A1 (Exelixis, Inc., priority 2022, published 2026).
